Measurements as given in patent publication US11311560B2, “Cyclic plasmenylethanolamines” (MED-LIFE DISCOVERIES LP, priority 2017, dated 2022).

Assays:
Format in all cases: in vivo, mouse
[1] = test system: Pex7 hypomorph/null mice; assay: Open field test after 4 weeks oral treatment
From the text: The Pex7 hypomorph/null model is a hypomorphic (B6;129S6-Pex7^tm2.3Brav/s9) mouse model on a mixed background (C57BL/6NCrl and 129S6/SvEvTac). The hypomorphic allele in Pex7 hypomorph/null was generated by inserting an inverse neo cassette into intron 2 and lox P sites surrounding exon 3. The Pex7 null allele was generated using (B6.C-Tg(cmv-cre)1Cgn/J) mouse. The Pex7 hypomorph/null mouse model has 90% survival, 0.016-0.257% of wild type Pex7 mRNA levels and 20-30% plasmalogen levels Pex7 hypomoprh/null mice (3-4 months); and wild-type animals, males and females included in treatments and behavioral tests. Pex7 hypomorph/null mice were randomly assigned, after a baseline open field test, into 3 treatment groups: PPI-1040, PPI-1011, and vehicle controls, n=6 mice per group). PPI-1011 or PPI-1040 at 50 mg/kg was given by oral gavage 5 days per week (Monday-Friday) for 4 weeks. During the treatment period, animals were weighed weekly and observed for signs of distress. The open field test was performed at the end of treatment. To avoid selection bias, data analysis was performed only at the study end. Animals were sacrificed after a 24-hour post the last dose.
The open field test is a behavioral test used to evaluate the general locomotor activity, exploratory and anxiety-like behaviour of mice in response to a novel environment. The animal is placed inside a custom made square, gray acrylic box measuring 40×40×40 cm and allowed to move freely for 5 minutes while being recorded by an overhead camera (camera model). The footage was analyzed by an automated tracking system (Any-maze Video Tracking Software, Stoelting Co, Wood Dale, Ill., USA), for total distance traveled (meters) & activity (mobility in seconds) time. The total distance traveled is the total distance that animal traveled during the test and the activity measures the amount of time the animal was active during the test.

[2] = Oral bioavailability study with 13C-labeled PPI-1050: labeled glycerolipids in serum; conditions: wild-type C57Bl/6 mice
Procedure: A ^13C-labeled version of PPI-1040, called PPI-1050, was generated to evaluate the ability of the intact compound to cross the gut boundary and enter the bloodstream intact. PPI-1050 contains carbon-13 labels on the three glycerol carbons and 3 carbons of the sn-1 palmitic acid. Wild-type C57/Bl6 mice were treated with a single oral dose of 100 mg/kg PPI-1050 (formulated in Neobee-M5 with 0.1% thioglycerol) or vehicle. Animals were then sacrificed and blood harvested by cardiac puncture at 1, 3 and 6 hours post-treatment (n=3). Serum was then analyzed for presence of incorporation of the label into glycerolipids. Serum extraction was performed on 20 μL aliquots in 1.4 ml Thermo matrix tubes. […] A 100 μL aliquot of the ethyl acetate layer was analyzed using FI-MS/MS on a API4000™ mass spectrometer (Applied Biosystems) coupled with Agilent 1100 HPLC pump and auto sampler. […] The parent PlsEtn mass was determined by incorporating the intact number of 13C labels in the predicted parent together with the corresponding daughter ion (sn2 fatty acid loss) to obtain the quantitative MS/MS transition pair. To confirm the ethanolamine group remained intact upon absorption we also analyzed serum for the presence of labeled alkyl-acyl and vinyl-acyl glycerols using FI-MS/MS analysis in positive mode. All transitions measured can be found in Table 1 below. […]

[3] = test system: Pex7 homozygous hypomorphic animals (Pex7^neo/neo); assay: 2 week comparison of plasmalogen precursors: plasmalogen levels in plasma and liver (LC-MS)
Procedure: Pex7 homozygous hypomorphic animals (Pex7^neo/neo) were used as a model of rhizomelic chondrodysplasia punctata (RCDP). Mice were dosed with either PPI-1011 or PPI-1040 at equimolar concentrations of 100 mg/Kg and 89.7 mg/Kg respectively. PPI-1011 was formulated in Neobee M-5, at a concentration of 12.5 mg/mL and stored at −20° C. until the first treatment day after which point the remaining formulation was stored at 4° C. Oral gavage volumes were adjusted by mouse weight to ensure a 100 mg/kg dose. PPI-1040 was stored in a sealed ampoule in solution with dichloromethane under argon gas until immediately before use. At time of treatment the ampoule was opened and dichloromethane was evaporated off under nitrogen gas for 10 minutes. Neobee M-5 was then added and the solution and vortexed to generate a 22.4 mg/mL formulation. Animals were dosed via intraperitoneal injections with doses adjusted by weight to ensure an 89.7 mg/Kg dose to each animal. Animals were sacrificed 24 hours after the ninth treatment (week 1-Monday to Friday and week 2-Monday to Thursday). Blood samples were collected in EDTA tubes and then spun down in a clinical centrifuge. Plasma samples were stored at −80° C. until thawed for analysis. Tissue samples were harvested and flash frozen in liquid nitrogen and then stored at −80° C. All tissue samples were homogenized using liquid nitrogen, generating a fine powder.
Plasma aliquots of 20 μL were analyzed, while tissues were aliquoted with anti-static polypropylene disposable milligram scoops prior to analysis. Water (200 μL) was added and samples were ice bath sonicated for 30 mins prior to the addition of 600 μL of ethyl acetate. Samples were mixed at 2000 rpm for 15 mins followed by a 10 min centrifugation at 3500 rpm. Tissue samples were diluted into an ethyl acetate (1:4) containing labeled internal standards [^13C-PlsEtn (C37^13C6H74NO7P) and ^13C-PtdEtn (C24^13C19H74NO8P)]. Water (80 μL) was added and samples were again stirred at 2000 rpm for 15 mins followed by a 2 min centrifugation at 3500 rpm. High-throughput analysis method was based on multiple reaction monitoring of one parent/fragment transition for the ion pairs, performed using liquid chromatography-mass spectrometry.

[4] = 50 mg/kg oral gavage, 5 days per week, 5 minutes test
[5] = 89.7 mg/Kg intraperitoneal, 2 weeks
[6] = PPI-1011 100 mg/Kg oral or PPI-1040 89.7 mg/Kg intraperitoneal, 2 weeks

SMILES: CC/C=C\C/C=C\C/C=C\C/C=C\C/C=C\C/C=C\CCC(=O)OC(CO/C=C\CCCCCCCCCCCCCC)COP1(=O)NCCO1 (stereo not shown) [PPI-1040, 1-(((Z)-hexadec-1-en-1-yl)oxy)-3-((2-oxido-1,3,2-oxazaphospholidin-2-yl)oxy)propan-2-yl (4Z,7Z,10Z,13Z,16Z,19Z)-docosa-4,7,10,13,16,19-hexaenoate]
- open field: time active [1, 4]: significant decrease in activity and normalization of the hyperactive phenotype
- open field: total distance traveled [1, 4]: significant decrease in activity and normalization of the hyperactive phenotype
- hyperactivity phenotype ([1]; 50 mg/kg oral, p<0.05): significant improvement
- oral bioavailability ([2]; single oral dose 100 mg/kg PPI-1050): orally bioavailable and crossed the gut lining intact
- intact compound with closed phosphoethanolamine ring in serum ([2]; single oral dose 100 mg/kg PPI-1050, 1, 3, 6 hours): not detectable in any samples
- bioavailability and conversion to endogenous ethanolamine plasmalogen [3, 5]: bioavailable in the mouse
- total 16:0 plasmalogen pool in plasma [3, 5]: augmented the total 16:0 plasmalogen to control levels
- 16:0 plasmalogen pool in liver [3, 6]: augmented the 16:0 plasmalogen pool in the liver to control levels
- target plasmalogen (16:0/22:6) levels in liver [3, 6]: to levels above control
- levels of the target plasmalogen (16:0/22:6) in the plasma ([3]; PPI-1040 89.7 mg/Kg intraperitoneal, 2 weeks (9 treatments)): 2 × above control
